Values quoted from earlier work in patent publication EP4516295A1, “PH-INDUCIBLE STRUCTURE-SWITCHING LIPID NANOVECTORS, SEMI-SYNTHETIC EXTRACELLULAR VESICLES, METHODS OF MAKING SAME AND USES THEREOF” (ETH Zurich, priority 2023, dated 2025).

Details: apparent acid dissociation constant prior to incorporation in LNVs

| SMILES | pKa |
| --- | --- |
| CCCC/C=C\C/C=C\CCCCCCCCCC1(CCCCCCCC/C=C\C/C=C\CCCCC)OCC(CN(C)C)O1 [D-Lin-K-DMA, N,N-dimethyl-1-(2-((10Z,13Z)-octadeca-10,13-dien-1-yl)-2-((9Z,12Z)-octadeca-9,12-dien-1-yl)-1,3-dioxolan-4 yl)methanamine] | 5.9 |
| CCCCC/C=C\C/C=C\CCCCCCCCOCC(CN(C)C)OCCCCCCCC/C=C\C/C=C\CCCCC (stereo not drawn) [DLin-DMA, 1,2-dilinoleyloxy-N,N-dimethyl-3-aminopropane] | 6.8 |
| CCCC/C=C\C/C=C\CCCCCCCCCC1(CCCCCCCC/C=C\C/C=C\CCCCC)OCC(CCN(C)C)O1 (stereo not drawn) [DLin-KC2-DMA, N,N-dimethyl-2-(2-((10Z,13Z)-octadeca-10,13-dien-1-yl)-2-((9Z,12Z)-octadeca-9,12-dien-1-yl)-1,3-dioxolan-4-yl)ethan-1-amine] | 6.68 |
| CCCC/C=C\C/C=C\CCCCCCCCCC1(CCCCCCCC/C=C\C/C=C\CCCCC)OCC(CCCN(C)C)O1 (stereo not drawn) [DLin-KC3-DMA, N,N-dimethyl-3-(2-((10Z,13Z)-octadeca-10,13-dien-1-yl)-2-((9Z,12Z)-octadeca-9,12-dien-1-yl)-1,3-dioxolan-4-yl)propan-1-amine] | 7.2 |
| CCCC/C=C\C/C=C\CCCCCCCCCC1(CCCCCCCC/C=C\C/C=C\CCCCC)OCC(CCCCN(C)C)O1 (stereo not drawn) [DLin-KC4-DMA, N,N-dimethyl-4-(2-((10Z,13Z)-octadeca-10,13-dien-1-yl)-2-((9Z,12Z)-octadeca-9,12-dien-1-yl)-1,3-dioxolan-4-yl)butan-1-amine] | 7.3 |
| CCCCC/C=C\C/C=C\CCCCCCCCC(CCCCCCCC/C=C\C/C=C\CCCCC)OC(=O)CCCN(C)C [DLin-MC3-DMA, 4-(dimethylamino)-butanoic acid, (10Z,13Z)-1-(9Z,12Z)-9,12-octadecadien-1-yl-10,13-nonadecadien-1-yl ester] | 6.44 |

The remaining lines, values ahead:

| pKa | SMILES |
| --- | --- |
| 6.09 | CCCCCCCCC(CCCCCC)C(=O)OCCCCCCN(CCCCO)CCCCCCOC(=O)C(CCCCCC)CCCCCCCC (stereo not drawn) [ALC-0315] |
| 6.38 | CCCCCC/C=C\COC(=O)CCCCCCCC(CCCCCCCC(=O)OC/C=C\CCCCCC)OC(=O)CCCN(C)C [L319] |
| 6.68 | CCCCCCCCCCCOC(=O)CCCCCN(CCO)CCCCCCCC(=O)OC(CCCCCCCC)CCCCCCCC [SM-102] |
